# Laboratory results as given in ChEMBL document CHEMBL2074093, “The predominant contribution of oligopeptide transporter PepT1 to intestinal absorption of beta-lactam antibiotics in the rat small intestine” (J Pharm Pharmacol, 1997).
# Molecular target: T1, Solute carrier family 15 member 1 (Rattus norvegicus) (UniProt P51574)
# T1 sequence (whole entry): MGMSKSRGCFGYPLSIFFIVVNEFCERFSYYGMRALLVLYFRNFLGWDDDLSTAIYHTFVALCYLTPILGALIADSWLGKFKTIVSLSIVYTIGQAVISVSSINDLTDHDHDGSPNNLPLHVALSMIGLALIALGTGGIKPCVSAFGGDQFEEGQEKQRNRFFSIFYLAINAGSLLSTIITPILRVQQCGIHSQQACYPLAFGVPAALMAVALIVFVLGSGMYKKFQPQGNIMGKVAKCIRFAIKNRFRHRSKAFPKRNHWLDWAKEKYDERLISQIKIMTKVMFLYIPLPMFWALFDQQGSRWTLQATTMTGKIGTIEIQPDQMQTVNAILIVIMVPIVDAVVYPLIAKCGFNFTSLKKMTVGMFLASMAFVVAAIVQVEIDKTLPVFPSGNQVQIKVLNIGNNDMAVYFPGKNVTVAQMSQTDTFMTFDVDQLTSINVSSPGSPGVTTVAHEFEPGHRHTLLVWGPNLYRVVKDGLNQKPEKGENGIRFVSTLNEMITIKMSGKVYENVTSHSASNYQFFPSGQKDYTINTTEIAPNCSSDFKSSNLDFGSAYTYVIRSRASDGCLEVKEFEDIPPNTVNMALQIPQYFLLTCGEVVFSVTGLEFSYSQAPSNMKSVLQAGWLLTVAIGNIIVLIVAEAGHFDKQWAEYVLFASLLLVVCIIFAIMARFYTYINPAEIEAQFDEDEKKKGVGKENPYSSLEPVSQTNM
# Assay: TP_TRANSPORTER: uptake in Xenopus laevis oocytes
# Type: functional, cell-based
# Settings: Oocyte
row,Activity,SMILES
1,substrate [+],CC1=C(C(=O)O)N2C(=O)[C@@H](NC(=O)[C@H](N)c3ccc(O)cc3)[C@H]2SC1
2,substrate [+],C=CC1=C(C(=O)O)N2C(=O)[C@@H](NC(=O)/C(=N\OCC(=O)O)c3csc(N)n3)[C@H]2SC1
3,substrate [+],CC1=C(C(=O)O)N2C(=O)[C@@H](NC(=O)[C@H](N)c3ccccc3)[C@H]2SC1
